Where “and” joins values, the source holds several entries; their conditions need not be identical. Equal values may be shown once. Read-outs that look alike come from different tables or passages of the source.
Target: T1, MRSA PK (Staphylococcus aureus, UniProt Q6GG09)
T1 construct: His tag (pET-28a(+) vector) (N); made in house; host or cells: E. coli BL-21 (DE3)
Assay: MRSA PK activity, continuous LDH-coupled assay
Assay type: biochemical, S. aureus (MRSA strain Sanger 252)
Settings: for inhibition at 10 µM: read-out: % Inhibition MRSA PK
Procedure, shortened: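 Activity was tracked as the 340 nm absorbance fall from NADH oxidation via coupled LDH, at 30 °C for ≤5 min. Reactions began on adding 15 nM recombinant His-tagged S. aureus PK, with inhibitor DMSO kept ≤1%. Four-parameter dose–response fitting gave IC50.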

[1] = Tables 1-6, 2 mM ADP, 10 mM PEP, 15 nM PK, read-out: IC50

T1 sequence (Q6GG09 whole entry): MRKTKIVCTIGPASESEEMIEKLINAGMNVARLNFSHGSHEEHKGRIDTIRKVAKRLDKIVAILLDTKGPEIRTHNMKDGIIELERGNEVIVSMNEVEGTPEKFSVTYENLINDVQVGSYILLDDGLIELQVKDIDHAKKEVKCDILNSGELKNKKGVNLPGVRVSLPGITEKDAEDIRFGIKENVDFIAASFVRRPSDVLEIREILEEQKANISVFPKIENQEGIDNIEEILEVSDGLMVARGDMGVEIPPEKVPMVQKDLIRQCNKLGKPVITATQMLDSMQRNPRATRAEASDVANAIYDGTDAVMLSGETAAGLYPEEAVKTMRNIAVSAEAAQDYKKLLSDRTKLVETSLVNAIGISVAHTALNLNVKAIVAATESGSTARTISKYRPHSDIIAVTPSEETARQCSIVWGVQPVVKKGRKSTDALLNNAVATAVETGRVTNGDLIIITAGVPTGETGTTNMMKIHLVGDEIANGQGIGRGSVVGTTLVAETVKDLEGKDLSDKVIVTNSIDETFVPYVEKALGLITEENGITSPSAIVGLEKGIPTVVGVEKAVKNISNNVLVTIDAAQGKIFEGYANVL

SMILES	IC50 [1]	inhibition at 10 µM [%]	IC50 [nM]
Brc1ccc2[nH]c(-c3cc4cc(Br)ccc4[nH]3)cc2c1 [Compound 10i, 5,5′-Bibromo-1H,1′H-2,2′-biindole]	3 nM	71	–
OCCn1c(-c2cc3ccc(Br)cc3[nH]2)cc2cc(Br)ccc21 [Compound 17, 2-(5,6′-Dibromo-1H, 1′H-[2,2′-biindol]-1-yl)ethanol]	1.3 nM	101	–
Brc1ccc2cc(-c3cc4cc(Br)c(Br)cc4[nH]3)[nH]c2c1 [Compound 10k, 5,6,6′-Tribromo-1H,1′H-2,2′-biindole]	1.5 nM	94.1	–
Brc1ccc2cc(-c3nc4ccccc4s3)[nH]c2c1 [Compound 22a, 2-(6-Bromo-1H-indol-2-yl)benzo[d]thiazole]	152 nM	89.8	–
Brc1ccc2cc(/C=C/c3cc4ccccc4[nH]3)[nH]c2c1 [Compound 27a, (E)-2-(2-(1H-indol-2-yl)vinyl)-6-bromo-1H-indole]	4.5 nM	93.4	–
Brc1ccc2[nH]c(C#Cc3cc4ccc(Br)cc4[nH]3)cc2c1 [Compound 25c, 6-Bromo-2-((5-bromo-1H-indol-2-yl)ethynyl)-1H-indole]	4.7 nM	86.3	–
Brc1ccc2cc(CCc3cc4ccc(Br)cc4[nH]3)[nH]c2c1 [Compound 28a, 1,2-bis(6-bromo-1H-indol-2-yl)ethane]	6 nM and 6.5 nM	93.4	–
Brc1ccc2cc(-c3cc4ccccc4o3)[nH]c2c1 [Compound 22b, 2-(Benzofuran-2-yl)-6-bromo-1H-indole]	108 nM	95.9	–
Cn1c(-c2cc3ccc(Br)cc3[nH]2)cc2cc(Br)ccc21 [Compound 12a, 5,6′-Dibromo-1-methyl-1H,1′H-2,2′-biindole]	1 nM	99	–
CN1CCN(CCn2c(-c3cc4ccc(Br)cc4[nH]3)cc3cc(Br)ccc32)CC1 [Compound 20a, 5,6′-Dibromo-1-(2-(4-methylpiperazin-1-yl)ethyl)-1H,1′H-2,2′-biindole]	2 nM	100	–
Brc1cc2cc(-c3cc4cc(Br)c(Br)cc4[nH]3)[nH]c2cc1Br [Compound 10l, 5,5′,6,6′-Tetrabromo-1H,1′H-2,2′-biindole]	2 nM	97.6	–
Brc1ccc2c(c1)cc(-c1cc3ccc(Br)cc3[nH]1)n2CCN1CCOCC1 [Compound 20b, 4-(2-(5,6′-dibromo-1H,1′H-[2,2′-biindol]-1-yl)ethyl)morpholine]	1.2 nM	101	–
Brc1ccc2[nH]c(-c3cc4ccc(Br)cc4[nH]3)cc2c1 [Compound 10c, 5,6-Bibromo-1H,1′H-2,2′-biiindole]	2.2 nM	97.8	–
Brc1ccc2cc(-c3cc4ccc(Br)cc4[nH]3)[nH]c2c1 [Compound 10b, 6,6′-Dibromo-1H,1′H-2,2′-biindole]	7 nM	84.9	–
COc1cc(-c2cc3ccccc3[nH]2)ccc1-c1cc2ccc(Br)cc2[nH]1 [Compound 33e, 2-(4-(1H-indol-2-yl)-2-methoxyphenyl)-6-bromo-1H-indole]	2.1 nM	62.2	–
O=C(c1c(-c2cc3cc(Cl)ccc3[nH]2)[nH]c2cc(Br)ccc12)C(F)(F)F [Compound 178, 1-(6-bromo-5′-chloro-1H,1′H-[2,2′-biindol]-3-yl)-2,2,2-trifluoroethan-1-one]	–	–	< 50

Source: patent US20170216252A1, “ANTI-BACTERIAL PYRUVATE KINASE MODULATOR COMPOUNDS, COMPOSITIONS, USES AND METHODS” (SIMON FRASER UNIVERSITY, priority 2014, published 2017)
